Results reported in patent US10821079B2, “PKC activators and combinations thereof” (Cognitive Research Enterprises, Inc., priority 2011, dated 2020).

Assays:
[1] = system: SH-SY5Y neuroblastoma cells; assay: Neuronal and synaptic marker expression in cells treated with RA and Bryostatin-1 (immunofluorescence, immunoblot); type: cell-based, human
Protocol: Human SH-SY5Y neuroblastoma cells (ATCC) were cultured in 45% F12K, 45% minimum Eagle's medium, 10% fetal calf serum. […] For differentiation of SH-SY5Y cells were maintained at 2% serum and treated with 10 μM RA for 72 hr. […] Medium was changed every 3 days with fresh supplementation of RA. Rat hippocampal neurons from 18-day-old embryonic Sprague-Dawley rat brains were plated on 24-well plates coated with poly-D-lysine (Sigma-Aldrich) in neurobasal medium supplemented with B-27 containing 0.5 mM glutamine and 25 μM glutamate (Invitrogen). The neuronal cells were grown under 5% CO2 for 14 days in an incubator maintained at 37° C.
Cells were harvested in homogenizing buffer containing 10 mM Tris-Cl (pH 7.4), 1 mM PMSF (phenylmethylsulfonyl fluoride), 1 mM EGTA, 1 mM EDTA, 50 mM NaF, and 20 μM leupeptin and were lysed by sonication. […] Protein concentration was measured using the Coomassie Plus (Bradford) Protein Assay kit (Pierce, USA). Following quantification, 20 μg of protein from each sample was subjected to SDS-PAGE analysis in 4-20% gradient Tris-Glycine gel (Invitrogen, USA). […] Western Blot was imaged in the ImageQuant RT-ECL (GE Life Sciences, Piscataway, N.J.) and densitometric quantification was performed using the IMAL software (Blanchette Rockefeller Neurosciences Institute, Morgantown, W. Va.). […]

PKC-ε = PKC-ε mRNA by RT-PCR in RA / Bryostatin-1 treated cells; type: cell-based, human
Protocol: RNA was isolated from the cells using Trizol reagent (Invitrogen, USA) following the manufacturer's protocol. Briefly, 5 μg of total RNA was reverse transcribed using oligo (dT) and Superscript III (Invitrogen, USA) at 50° C. for 1 hr. Two μl of the cDNA product was amplified using primers for PKC-ε (Forward Primer—[…], Reverse primer—[…]), and β-tubulin (Forward Primer—[…], Reverse primer—[…]) (Origene, Rockville, Md.) for 25 cycles following standard PCR protocols and 55° C. annealing temperature. The PCR amplicons were analyzed in an E-Gel (Invitrogen, USA). The gel image was documented using a Fuji Image gel scanner (FLA-9000, Fuji Film) and densitometric quantification was performed using the IMAL software (Blanchette Rockefeller Neurosciences Institute, Morgantown, W. Va.). Data were represented as normalized ratio of PKC-ε OD (Optical Density) against β-tubulin OD for three independent experiments.

[2] = system: phosphatidylserine (C2) binding site; assay: 3H-DCPLA-ME binding to rat brain slices with competitors, film autoradiography
Protocol: To determine the binding site of DCPLA-ME, ^3H-DCPLA-ME was incubated with rat brain slices in the absence and presence of known C1 and C2 competitors. More specifically, rat brain sections were fixed with formaldehyde, sliced, and incubated with (1) ^3H-DCPLA-ME alone; (2) ^3H-DCPLA-ME with DCPLA; (3) ^3H-DCPLA-ME with Phorbol ester; or (4) ^3H-DCPLA-ME and Bryostatin 1. After incubation, the slices were washed with a buffer made of 130 mM NaCl, 5 mM MgCl, 5 mM KCl, 1 mM EGTA, and 0.1% bovine serum albumin in 10 mM HEPES-NaOH, pH 7.4, dried, and analyzed with film-autoradiography.

SMILES	change in synaptophysin or PSD-95 (in words) ([1]; RA only)	increase of mRNA level of PKC-ε (PKC-ε)	3H-DCPLA-ME binding, 30 nM competitor [2]	3H-DCPLA-ME binding, 1 μM competitor [2]	increase of synaptophysin expression (immunoblot) ([1]; alone, 72 hr)
CC1=C(/C=C/C(C)=C/C=C/C(C)=C/C(=O)O)C(C)(C)CCC1 [RA, All-trans retinoic acid]	did not show much change	2 fold	–	–	–
CCCCCC1CC1CC1CC1CCCCCCCC(=O)OC (centres unmarked) [DCPLA-ME, methyl 8-(2-((2-pentylcyclopropyl)methyl)cyclopropyl)octanoate]	–	–	64%	37%	–
CCC/C=C/C=C/C(=O)O[C@H]1/C(=C/C(=O)OC)C[C@H]2C[C@H]([C@@H](C)O)OC(=O)C[C@H](O)C[C@@H]3C[C@H](OC(C)=O)C(C)(C)C(O)(C[C@@H]4C/C(=C/C(=O)OC)C[C@H](/C=C/C(C)(C)[C@]1(O)O2)O4)O3 [Bryostatin-1]	–	2 fold	100%	77%	50%
